Reference: patent US9149546B2, “Compound having affinity for amyloid” (NIHON MEDI-PHYSICS CO., LTD., priority 2011, dated 2015)

Legend:
[1] = tested on: site of amyloid deposition in brain slice of AD patients; assay: Confirmation of compound avidity for brain slice of AD patients by autoradiography; format: binding, human; details: 5 μm brain slice of AD patients, 10 kBq/mL, 30 minutes, room temperature; amyloid deposition confirmed by immunostaining
Procedure: The following experiment was carried out in order to examine whether amyloid in brain of AD patients can be imaged by the compound of the present invention. • (1) A 5 μm-thick brain slice of AD patients was prepared from a brain tissue of AD patients available from Analytical Biological Services Inc. (United States). • (2) The brain slice was immersed in PBS for 15 minutes, 5 minutes and 5 minutes each. […] Then, it was immersed in a 1% BSA-containing PBS solution, a PBS solution and a PBS solution each for 5 minutes to wash the brain slice. The washed brain slice was sufficiently dried, and then exposed to an imaging plate for 16 hours, and then autoradiogram image analysis was carried out by use of a Bio-imaging Analyzer (type: BAS-2500; manufactured by FUJIFILM Corporation) (FIG. 3, FIG. 4, FIG. 5). • (3) Immunostaining at a site of amyloid deposition with an anti-amyloid antibody was carried out using adjacent slices. Anti-Human Amyloidβ (N) (82E1) Mouse IgG MoAb (Immuno-Biological Laboratories Co., Ltd.) was used as the anti-amyloid antibody, and Anti-Mouse IgG (H+L) Goat IgG Fab′-HRP (Immuno-Biological Laboratories Co., Ltd.) was used as a secondary antibody. […] Results

[2] = Measurement of transferability into brain and clearance; format: in vivo, male Wistar rats; details: rats, intravenous injection; for Radioactive accumulation per unit weight, After 2 min. / Radioactive accumulation per unit weight, After 5 min. / Radioactive accumulation per unit weight, After 15 min. / Radioactive accumulation per unit weight, After 30 min. / Radioactive accumulation per unit weight, After 60 min.: brain; for Radioactive accumulation per unit weight, After 2 min.: 2 min after injection; for Radioactive accumulation per unit weight, After 5 min.: 5 min after injection; for Radioactive accumulation per unit weight, After 15 min.: 15 min after injection; for Radioactive accumulation per unit weight, After 30 min.: 30 min after injection; for Radioactive accumulation per unit weight, After 60 min.: 60 min after injection; for transferability to brain and clearance from brain (in words): 2 to 60 min
Procedure: The sample solution was injected under non-anesthesia into the tail vein of male Wistar rats (8-week old) (dosage: 0.2 mL, dosed radioactivity: 7.4 MBq equivalent). The rats were sacrificed by decapitating under non-anesthesia to sample bloods and brains 2, 5, 15, 30 and 60 minutes after the injection. Brains were subjected to measurement of mass of brains and further subjected to measurement of radioactivity (hereinafter referred to as A in this Example) with a single channel analyzer (detector type SP-20 manufactured by OHYO KOKEN KOGYO Co., Ltd.). Further, the radioactivity level of the rest of the whole body including blood was measured in the same manner as above (hereinafter referred to as B in this Example). Using these measurement results, the amount of radioactive accumulation per unit weight of brain (% ID/g) at the respective time points were calculated in accordance with the following formula (2).
Separately, a solution of [^123I]-IMPY dissolved in a physiological saline solution containing 50 mmol/L of L-cysteine hydrochloride (radioactive concentration: 37 MBq/mL) was prepared. The same procedure as above was carried out to calculate the amount of radioactive accumulation per unit weight of brain (% ID/g) at the respective time points.
Meanwhile, in this Example, three animals were used for the experiment at the respective time points.

[3] = target: amyloid aggregates in the brain of AD patients (Homo sapiens, UniProt P05067); assay: Binding assay using brain gray matter homogenate of AD patients (Kd, Bmax); details: mixed solution of Compound 1 and Compound 3, 0.2 to 25 nmol/L; brain gray matter homogenate (frontal lobe) of AD patients; 22° C., 3 hours
amyloid aggregates in the brain of AD patients, sequence (P05067 672-713): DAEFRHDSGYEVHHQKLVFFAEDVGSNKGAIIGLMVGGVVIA
Procedure: Calculation of Dissociation Constant (Hereinafter, Referred to as Kd) and Maximum Binding Amount (Hereinafter, Referred to as Bmax) Resulting from Binding Assay Using Brain Tissue of Patients of Alzheimer's Disease (Hereinafter, Referred to as AD)
The assay was conducted using a brain gray matter homogenate of AD patients, which was prepared from a brain tissue (Frontal lobe) of AD patients commercially available from Analytical Biological Services Inc. (United States).
A mixed solution of Compound 1 (about 35 kBq/100 μL) and Compound 3 (62.5 nmol/L) was diluted with a 0.1% bovin serum albumin (hereinafter referred to as BSA)-containing 5 mmol/L phosphate buffer saline solution, and prepared to have a concentration of 0.2 nmol/L to 25 nmol/L in the reaction solution. To each well of a 96-well microplate, 100 μL of a 0.1% BSA-containing 5 mmol/L phosphate buffer saline solution and 100 μL of the prepared mixed solution of Compound 1 and Compound 3 were added. […] The filter after filtration was washed with a 0.1% BSA-containing 5 mmol/L phosphate buffer saline solution (200 μL×3 times), and then radioactivity remaining in the filter was measured with an Autowell Gamma system (type: ARC-7001, manufactured by Aloka). […] The resulting count was analyzed with GraphPad Prism Ver. 5 (manufactured by GraphPad Software, Inc.), and binding parameter (Kd, Bmax) was calculated.

[4] = Measurement of partition coefficient based on the octanol extraction method; format: physicochemical; details: water saturated 1-octanol / 1-octanol saturated water, 20 to 25±2° C.
Procedure: Water saturated 1-octanol and 1-octanol saturated water were added to the equilibrated vessel each in an amount of 200 μL, 400 μL or 800 μL. The equilibrated vessel was subjected to stirring, and then was shaken for 5 minutes (20 to 25±2° C., 20 rpm). […] Using the obtained count, log Poctanol was calculated in accordance with the following equation (1).

Compound	binding to the site of amyloid deposition on autoradiogram [1]	Radioactive accumulation per unit weight, After 2 min. [2] [% ID/g]	Radioactive accumulation per unit weight, After 5 min. [2] [% ID/g]	Radioactive accumulation per unit weight, After 15 min. [2] [% ID/g]	Radioactive accumulation per unit weight, After 30 min. [2] [% ID/g]	Radioactive accumulation per unit weight, After 60 min. [2] [% ID/g]	transferability to brain and clearance from brain (in words) [2]	Bmax [3] [fmol/mg protein]	logP at 5 min ([4]; 1-octanol/water, read-out: logPoctanol value)	logPoctanol value [4]
[123I]c1ccc2nc(-c3ccc(-n4ccnn4)cc3)cn2c1 [Compound 1, [^123I]-6-iodo-2-[4-(1H-1,2,3,-triazole-1-yl)phenyl]imidazo[1,2-a]pyridine]	confirmed	1.085	0.701	0.260	0.100	0.034	excellent transferability to brain and rapid clearance from brain	2242	1.98	1.98
CN(C)c1ccc(-c2cn3cc(I)ccc3n2)cc1 [[^123I]-IMPY, 6-iodo-2-[4′-(N,N-dimethylamino)phenyl]imidazo[1,2-a]pyridine, reference compound]	confirmed	1.644	1.192	0.554	0.225	0.085				
[^123I]-6-iodo-2-[4-(1H-pyrrole-1-yl)phenyl]imidazo[1,2-a]pyridine [Compound 2]	confirmed	1.201	1.065	0.745	0.349	0.113	excellent transferability to brain and rapid clearance from brain			
